{"source": "patent US11576383B2", "about": "“Pesticide composition containing thidiazuron and polyglutamic acid” (JIANGSU HUIFENG BIO AGRICULTURE CO., LTD., priority 2017, dated 2023)", "type_in_all_cases": "in vivo", "key": {"[1]": {"test_system": "banded sclerotial blight of indica", "assay": "Disease control of banded sclerotial blight in the indica comprehensive assay", "conditions": "50 a.i. mg/kg", "experimental": "(§1) 1. Comprehensive Assay Test of Compounding Thidiazuron and Polyglutamic Acid on Growth Regulation of Indica\n(§2) Thidiazuron and polyglutamic acid were diluted with acetone according to a certain concentration and were sprayed to stems and leaves of crops, and influence of concentrations on growth of crops is assayed in the field, including comprehensive evaluation on plant height, spike number, setting percentage, disease-resistant condition, yield condition and the like of the crops. Plant height control rate=(plant height of a clean water control group-processed plant height)/plant height of the clean water control group*100% Spike number increase ratio=(processed plant spike number-plant spike number of a clean water control group)/plant spike number of the clean water control group*100% Setting percentage=filled grain number per spike/total grain number per spike*100% Prevention effect=(disease index of a clean water control group-processed disease index)/disease index of the clean water control group*100% Yield per mu increase ratio=(processed yield per mu-yield per mu of a clean water control group)/yield per mu of the clean water control group*100%"}, "[2]": {"test_system": "Southern corn leaf blight", "assay": "Prevention of Southern corn leaf blight in the maize field comprehensive test", "conditions": "40 a.i. mg/kg", "experimental": "as §2\n(§3) 1. Field Comprehensive Test of Mixing Thidiazuron and Polyglutamic Acid on Growth Regulation and Disease Resistance and Production Increase of Maize Crops\n(§4) Sorghum variety: Suyu 23.\nPesticide application stage: a big horn stage of maize and a blooming stage of maize in which diseases such as Southern corn leaf blight are prone to occur. […]"}, "maize": {"test_system": "maize", "assay": "Field comprehensive test of mixing thidiazuron and polyglutamic acid on growth regulation and production increase of maize", "conditions": "40 a.i. mg/kg", "experimental": "as §2, §3, §4\nPesticide application stage: a big horn stage of maize and a blooming stage of maize in which diseases such as Southern corn leaf blight are prone to occur.\nPesticide application number of times: 2 times, 6 days asan interval. The examples of the preparation of the present invention are sprayed for three repeated times, and the result is the mean value."}, "indica": {"test_system": "indica", "assay": "Comprehensive assay of compounding thidiazuron and polyglutamic acid on growth regulation of indica (field, stem and leaf spraying)", "conditions": "50 a.i. mg/kg", "experimental": "as §1, §2"}}}
{"smiles": "O=C(Nc1ccccc1)Nc1cnns1", "note": "[Thidiazuron]", "values": [{"measurement": "Prevention Effect", "setting": "[1]; banded sclerotial blight of indica, vs clean water control group", "value": 49.8, "unit": "%"}, {"measurement": "Disease Index of Banded Sclerotial Blight", "setting": "[1]; indica", "value": 14.8}, {"measurement": "Southern corn leaf blight", "setting": "[2]; disease index", "value": 14.74}, {"measurement": "Prevention Effect", "setting": "[2]; Southern corn leaf blight, vs clean water control group", "value": 51.11, "unit": "%"}, {"measurement": "Stem Diameter", "setting": "maize", "value": 2.50, "unit": "cm"}, {"measurement": "Thousand seed weight", "setting": "maize", "value": 249.0, "unit": "g"}, {"measurement": "Plant Height", "setting": "maize; applied 2 times, 6 days interval, mean of three repeats", "value": 129.0, "unit": "cm"}, {"measurement": "Control Rate (plant height)", "setting": "maize; vs clean water control group", "value": 5.4, "unit": "%"}, {"measurement": "Increase Ratio (output, unit yield per mu)", "setting": "maize; vs clean water control group", "value": 6.1, "unit": "%"}, {"measurement": "Increase Ratio (stem diameter)", "setting": "maize; vs clean water control group", "value": 5.4, "unit": "%"}, {"measurement": "Increase Ratio (thousand seed weight)", "setting": "maize; vs clean water control group", "value": 5.4, "unit": "%"}, {"measurement": "Output", "setting": "maize; yield per mu", "value": "637.9 667M^2"}, {"measurement": "Spike Number of Single Plant", "setting": "indica", "value": 18.1, "unit": "grains"}, {"measurement": "Total Grain Number of Spike", "setting": "indica", "value": 145.7, "unit": "grains"}, {"measurement": "filled grain number per spike", "setting": "indica", "value": 132.2, "unit": "grains"}, {"measurement": "Setting Percentage", "setting": "indica; filled grain number per spike/total grain number per spike", "value": 90.7, "unit": "%"}, {"measurement": "Plant Height", "setting": "indica; stem and leaf spraying 2 times, 8 days interval, investigated at later grouting stage", "value": 121.2, "unit": "cm"}, {"measurement": "Plant Height Control Rate", "setting": "indica; vs clean water control group", "value": 5.0, "unit": "%"}, {"measurement": "Production Increase Ratio (yield per mu increase ratio)", "setting": "indica; vs clean water control group", "value": 5.5, "unit": "%"}, {"measurement": "Spike Number Increase Ratio", "setting": "indica; vs clean water control group", "value": 4.0, "unit": "%"}, {"measurement": "Output", "setting": "indica; yield per mu", "value": "537.5 667 M^2"}]}
